Reference: patent publication US20220233471A1, “PRODRUG COMPOSITIONS AND METHODS OF TREATMENT” (AQUESTIVE THERAPEUTICS, INC., priority 2021, published 2022)
“Also recorded” adds a separate entry of the source.

What was measured:
[1] = aerodynamic particle size of exposure aerosol (Aerodynamic Particle Sizer); type: physicochemical; conditions: exposure aerosol of micronized powder
Text: Mass median aerodynamic diameter (MMAD) of AQEP-09 was 1.57 μm (Geometric Standard Deviation (GSD) 1.74) and MMAD for Dipivefrin was 1.47 μm (GSD 2.63).

[2] = pharmacokinetics of epinephrine in Beagle dogs after bolus inhalation of prodrugs or IM EpiPen; type: in vivo; conditions: inhalation 0.4 vs 0.2 mg/kg (target 2×)
[3] = test system: human lung epithelial cells; experiment: LDH cytotoxicity / release assay in EpiAirway 3D culture; type: cell-based; conditions: for toxicity / cell viability in the LDH assay: 0.1 mM, 1 mM, 2 mM; for cell viability in the LDH assay: 5 mM, 10 mM, 50 mM
Experimental: (§1) Epinephrine prodrugs were evaluated. In vitro inhalation models were employed. In particular, an esterase hydrolysis assay was employed using human branchoalveolar lavage (BAL) fluid to examine prodrug stability. A permeability assay using in vitro a 3D culture model (EpiAirways, MatTek) of human lung epithelial cells was also performed. The 3D culture system mimics the structure of lungs, allowing for study of the hydrolysis of prodrugs in the lungs by esterases and the systemic permeability data. The EpiAirway 3D culture includes a ciliated apical surface, mucociliary epithelium and microporous membrane.
(§2) Compounds were incubated at different concentrations (5 mM, 10 mM, and 50 mM). Cell viability was assessed by LDH Cytotoxicity Detection kit (Takara # MK401) and MTT tissue viability assay kit (MatTek, # MTT-100). Receiver media were removed at different timepoints, 0.5, 1, 2, 3, 4, 6 hrs to test permeability; Samples were extracted and analyzed by an LC-MS method.
(§3) Referring to FIGS. 3C-3D Dipivefrin and AQEP-09 toxicity and permeability using human lung epithelial cells was also studied in the EpiAirway model. Compounds were incubated at different concentrations (0.1 mM, 1 mM, 2 mM) and cell viability was assessed by LDH release assay and MTT assay. See, e.g., Aysun Adan, Yağmur Kiraz and Yusuf Baran, “Cell Proliferation and Cytotoxicity Assays”, Current Pharmaceutical Biotechnology (2016) 17: 1213, which is incorporated by reference in its entirety. Receiver media were removed at different timepoints, 1, 2, 3, 4 hrs to test permeability. Samples were extracted and analyzed by LC-MS method.

[4] = esterase hydrolysis assay in human BAL fluid (prodrug stability); type: in vitro ADME; conditions: Human BAL fluid from 2 subjects; 1 μM; stabilizer sodium metabisulfite 8.9 mM; LC-MS
Experimental: Epinephrine prodrugs were evaluated. In vitro inhalation models were employed.
Hydrolysis of dipivefrin or AQEP-09 was studied in vitro in Human BAL fluid by measuring the epinephrine concentration. Frozen BAL fluid was used from 2 subjects. Compounds were incubated at 1 μM in the presence of a stabilizer (sodium metabisulfite, 8.9 mM). Samples were removed after stopping the enzyme reaction using NaF or SigmaFast at different timepoints. Samples were extracted and analyzed by LC-MS method. […] Less than 5% hydrolysis was observed.

[5] = test system: 3D culture model (EpiAirways, MatTek) of human lung epithelial cells
Experimental: as §1
In vitro permeability of the 3D culture was studied.
The Franz diffusion cell apparatus consists of two chambers separated by a membrane. The permeation studies were conducted using the 3D lung cell culture. The tissue membrane separates the donor compartment containing the prodrug and the receptor compartment containing the collection media whish was selected to provide sink conditions throughout the experiment.
as §2, §3

[6] = excipient compatibility study with dry powder inhalation carriers; type: physicochemical
Experimental: Compatibility of epinephrine prodrugs Disobutyryl L-epinephrine (AQEP-09) and Dipivefrin was studied with common carriers used for dry powder inhalation applications. Lactose monohydrate, Lactose anhydrous and Mannitol were used for the stability evaluation. Mixtures of the micronized API and the carriers were tested under stability conditions, 25° C./60%RH and 40° C./75%RH.

[7] = particle size distribution of jet-milled (micronized) prodrugs; type: physicochemical; conditions: feed rate 840 g/hr
Experimental: Both dipivefrin and Diisobutyryl L-epinephrine were micronized using the jet milling process using nitrogen. The effect of pressure and feed rates were determined. The particle sizes of the micronized material are shown in the Table 1 and micronized/milled material suitable for drug powder inhalation (2-5 μm) were manufactured.

[8] = stability in sodium metabisulfite; type: physicochemical
Text: A prodrug can present improved hydrophobicity, better permeation, dose reduction, and enhanced speed of absorption. It can also provide alternative compositions with unique stability profiles. […] A prodrug that is not absorbed in the stomach can also avoid, minimize or eliminate the side effect of epigastric pain. Moreover, a prodrug can result in reduced adrenergic receptor binding, resulting in reduced variability of vasoconstriction and more stability.

[9] = Lactose Anhydrous, 25° C./60% RH, 0 weeks
[10] = Lactose Anhydrous, 25° C./60% RH, 2 weeks
[11] = Lactose Anhydrous, 25° C./60% RH, 4 weeks
[12] = Lactose Anhydrous, 40° C./75% RH, 0 weeks
[13] = Lactose Anhydrous, 40° C./75% RH, 2 weeks
[14] = Lactose Anhydrous, 40° C./75% RH, 4 weeks
[15] = Lactose Monohydrate, 25° C./60% RH, 0 weeks
[16] = Lactose Monohydrate, 25° C./60% RH, 2 weeks
[17] = Lactose Monohydrate, 25° C./60% RH, 4 weeks
[18] = Lactose Monohydrate, 40° C./75% RH, 0 weeks
[19] = Lactose Monohydrate, 40° C./75% RH, 2 weeks
[20] = Lactose Monohydrate, 40° C./75% RH, 4 weeks
[21] = Mannitol, 25° C./60% RH, 0 weeks
[22] = Mannitol, 25° C./60% RH, 2 weeks
[23] = Mannitol, 25° C./60% RH, 4 weeks
[24] = Mannitol, 40° C./75% RH, 0 weeks
[25] = Mannitol, 40° C./75% RH, 2 weeks
[26] = Mannitol, 40° C./75% RH, 4 weeks
[27] = nitrogen milling pressure 1.5 bar
[28] = nitrogen milling pressure 3.5 bar

SMILES	GSD [1]	MMAD [1] [μm]	toxicity / cell viability in the LDH assay [3]	hydrolysis to epinephrine [4]	Assay (Percent Label Claim) [6, 9] [%]	Assay (Percent Label Claim) [6, 10] [%]	Assay (Percent Label Claim) [6, 11] [%]	Assay (Percent Label Claim) [6, 12] [%]	Assay (Percent Label Claim) [6, 13] [%]	Assay (Percent Label Claim) [6, 14] [%]	Assay (Percent Label Claim) [6, 15] [%]	Assay (Percent Label Claim) [6, 16] [%]	Assay (Percent Label Claim) [6, 17] [%]	Assay (Percent Label Claim) [6, 18] [%]	Assay (Percent Label Claim) [6, 19] [%]	Assay (Percent Label Claim) [6, 20] [%]	Assay (Percent Label Claim) [6, 21] [%]	Assay (Percent Label Claim) [6, 22] [%]	Assay (Percent Label Claim) [6, 23] [%]	Assay (Percent Label Claim) [6, 24] [%]	other results
CNCC(O)c1ccc(OC(=O)C(C)C)c(OC(=O)C(C)C)c1 [AQEP-09, Diisobutyryl L-epinephrine]	1.74	1.57	did not show any toxicity; also recorded: no or less toxicity	minimal hydrolysis	100	103	103	100	97	87	100	100	97	100	94	83	100	96	96	100	Overall dose response [2]: slightly less than dose proportional; permeability compared to Dipivefrin [5]: lower permeability; increase in dose that shows comparable permeability to Dipivefrin ([5]; human): 50%; Assay (Percent Label Claim) [6, 25]: 95%; Assay (Percent Label Claim) [6, 26]: 84%; Particle size d10 [7, 27]: d10-10.30 μm; Particle size d50 [7, 27]: d50-55.70 μm; Particle size d90 [7, 27]: d90-132.75 μm; Particle size d10 [7, 28]: d10-0.46 μm; Particle size d50 [7, 28]: d50-1.12 μm; Particle size d90 [7, 28]: d90-2.37 μm
CNCC(O)c1ccc(OC(=O)C(C)(C)C)c(OC(=O)C(C)(C)C)c1 (stereo not drawn) [Dipivefrin]	2.63	1.47	lower cell viability	minimal hydrolysis	100	100	96	100	99	95	100	101	96	100	96	81	100	101	98	100	stability in sodium metabisulfite [8]: unstable; cell viability in the LDH assay ([3]; 6 h): cell viability was reduced at all doses; cell viability in the LDH assay ([3]; 24 hr): viability was improved; permeability in human lung model [5]: dose dependent permeability; Assay (Percent Label Claim) [6, 25]: 101%; Assay (Percent Label Claim) [6, 26]: 95%; Particle size d10 [7, 27]: d10-0.91 μm; Particle size d50 [7, 27]: d50-6.24 μm; Particle size d90 [7, 27]: d90-13.18 μm; Particle size d10 [7, 28]: d10-0.53 μm; Particle size d50 [7, 28]: d50-1.27 μm; Particle size d90 [7, 28]: d90-2.92 μm
